Reference: patent publication US7361680B2, “Indole compounds useful for the treatment of cancer” (The Regents of the University of California, priority 1999, dated 2008)
Residues, ends and D or L forms follow the SMILES beside them. *: point of attachment. Cbz = O=C(OCc1ccccc1)*; CH2F = FC*

How the values were obtained:
in vitro = conditions: human, primary normal peripheral blood lymphocyte (PBL) cells
CLL cells [1] = assay: MTT cytotoxicity assay, CLL cells; format: cell-based; conditions: Homo sapiens, CLL cell, 72 hours, duplicate
Description: The compounds of the invention were screened for CLL apoptotic activity by flow cytometry and a MTT-based assay. […] Primary PBL cells were acquired from the San Diego Blood Bank, San Diego, Calif. DiOC6 and PI dyes were obtained from Molecular Probes, Eugene, Oreg. Otherwise, unless indicated, all other reagents were purchased from Sigma (St. Louis, Mo.), and all test compounds were dissolved in sterile DMSO.
To get a more concise measure of the EC50 and confirm the flow cytometry results, a MTT (3-(4,5-dimethylthiazol-2-yl)-2,5-diphenyl tertrazolium bromide) assay using a procedure similar to that described by Mosmann, T., J Immunol Methods. 1983, 65, 55-63, was performed on all analogs. This method provided a larger number of datapoints so that a value for the EC50 could be extrapolated.
This assay was based on a procedure described by Mosmann. Briefly, in each well of a 96-well plate, 5×10^5 CLL cells were suspended in 100 μL of […] medium containing 10% FBS, 100 μg/mL penicillin, and 100 μg/mL streptomycin. Serial dilution of test compounds were then performed in duplicate across the plate to establish a concentration gradient from 0 to 1000 μM. After 72 hours of incubation at 37° C., the cells were incubated for 6 more hours in the presence of 20 μL of 5 mg/mL MTT (3-(4,5-dimethylthiazol-2-yl)-2,5-diphenyl tertrazolium bromide) before dissolving the resulting crystals in 50 μL lysis buffer (15% SDS, 15 mM HCl) overnight. Afterwards, the absorbance of each well was measured at […] in a Finstrument Microplate Reader, and the data was analyzed by Graphpad Prism Software, version 2.0b.

Mcl-1 = Mcl-1 level in LNCaP cells, SDS-PAGE immunoblot; format: cell-based; conditions: co-incubation with 5.0 μM MG-132 or pre-incubation with Z-VAD, LNCaP
Bag-1 = Bag-1 level in LNCaP cells, SDS-PAGE immunoblot; format: cell-based; conditions: co-incubation with 5.0 μM MG-132 or pre-incubation with Z-VAD
CLL cells [2] = assay: Viability of CLL cells, erythrocin B exclusion assay; conditions: fludarabine 10 nM or etodolac 10 μM alone, 48 hours; FIG. 3

## CCc1cccc2c3c([nH]c12)C(CC)(CCOC)OCC3 (centres unmarked) [Compound 2, 1,8-Diethyl-1-(2-methoxyethyl)-1,3,4,9-tetrahydropyrano[3,4-b]indole]
In vitro
  CC50 at 48 h: > 750 µM
CLL cells [1]
  EC50: > 1000 µM

## CCc1cccc2c3c([nH]c12)C(CC)(CCF)OCC3 (centres unmarked) [Compound 3, 1,8-Diethyl-1-(2-fluoroethyl)-1,3,4,9-tetrahydropyrano[3,4-b]indole]
In vitro
  CC50 at 48 h: < 100 µM
CLL cells [1]
  EC50: 767 µM

## CCc1cccc2c3c([nH]c12)C(CC)(CCCl)OCC3 (centres unmarked) [Compound 4, 1-(2-Chloroethyl)-1,8-diethyl-1,3,4,9-tetrahydropyrano[3,4-b]indole]
In vitro
  CC50 at 48 h: < 100 µM
CLL cells [1]
  EC50: 572 µM

## CCc1cccc2c3c([nH]c12)C(CC)(CC)OCC3 [Compound 5, 1,1,8-Triethyl-1,3,4,9-tetrahydropyrano[3,4-b]indole]
other
  melting point: 133 to 134 °C
CLL cells [1]
  EC50: > 1000 µM

## CCc1cccc2c3c([nH]c12)C(CC)(CC=N)OCC3 (centres unmarked) [Compound 7, 2-(1,8-Diethyl-1,3,4,9-tetrahydropyrano[3,4-b]indol-yl)-ethylideneamine]
In vitro
  CC50 at 48 h: 250 to 500 µM
CLL cells [1]
  EC50: 714 µM

## CCc1cccc2c3c([nH]c12)C(CC)(CC=O)OCC3 (centres unmarked) [Compound 8, (1,8-Diethyl-1,3,4,9-tetrahydropyrano[3,4-b]indol-1-yl)-acetaldehyde]
In vitro
  CC50 at 48 h: < 100 µM
CLL cells [1]
  EC50: 111 µM

## CCc1cccc2c3c([nH]c12)C(CC)(CCOCSC)OCC3 (centres unmarked) [Compound 9, 1,8-Diethyl-1-(2-methylsufanylmethoxyethyl)-1,3,4,9-tetrahydropyrano[3,4-b]indole]
CLL cells [1]
  EC50: 324 µM

## CCc1cccc2c3c([nH]c12)C(CC)(CCOC(C)=O)OCC3 (centres unmarked) [Compound 10, Acetic acid-2-(1,8-diethyl-1,3,4,9-tetrahydropyrano[3,4-b]indol-1-yl)-ethyl ester]
In vitro
  CC50 at 48 h: 100 to 250 µM
CLL cells [1]
  EC50: 686 µM

## CCc1cccc2c3c([nH]c12)C(CC)(CC(O)O)OCC3 (centres unmarked) [Compound 11, 2-(1,8-Diethyl-1,3,4,9-tetrahydropyrano[3,4-b]indol-1-yl)-ethane-1,1-diol]
other
  melting point: 158 to 159 °C
CLL cells [1]
  EC50: 416 µM

## CCc1cccc2c3c([nH]c12)C(CC)(CC(C)O)OCC3 (centres unmarked) [Compound 12, 1-(1,8-Diethyl-1,3,4,9-tetrahydropyrano[3,4-b]indol-1-yl)-propan-2-ol]
In vitro
  CC50 at 48 h: 250 to 500 µM
CLL cells [1]
  EC50: 272 µM

## CCc1cccc2c3c([nH]c12)C(CC)(CC(C)=O)OCC3 (centres unmarked) [Compound 13, 1-(1,8-Diethyl-1,3,4,9-tetrahydropyrano[3,4-b]indol-1-yl)-propan-2-one]
In vitro
  CC50 at 48 h: > 750 µM
CLL cells [1]
  EC50: > 1000 µM

## CC(C)C[C@@H](C=O)NC(=O)[C@H](CC(C)C)NC(=O)[C@H](CC(C)C)NC(=O)OCc1ccccc1 [MG-132] (Cbz-Leu-Leu-Leu-aldehyde)
Mcl-1
  effect on the etodolac-induced fall in Mcl-1 levels: prevented
Bag-1
  effect on the etodolac-induced fall in Bag-1 levels: prevented

## CC(NC(=O)C(NC(=O)OCc1ccccc1)C(C)C)C(=O)NC(CC(=O)O)C(=O)CF (stereo not drawn) [Z-VAD] (Cbz-Val-Ala-Asp-CH2F; configuration not given here)
Mcl-1
  effect on the etodolac-induced fall in Mcl-1 levels: did not prevent
Bag-1
  effect on the etodolac-induced fall in Bag-1 levels: did not prevent

## Nc1nc(F)nc2c1ncn2[C@@H]1O[C@H](CO)[C@@H](O)[C@@H]1O [fludarabine]
CLL cells [2]
  cytotoxic effect on CLL cells, either drug alone: ineffective
